biological target: Casein kinase II subunit alpha/beta (Homo sapiens, UniProt P68400); experiment: In Vitro Kinase Assay; details: pH 7.5; 30 °C
Method: Each test was performed twice in a total reaction volume of 30 μL, containing 6 μg of peptide substrate RRRDDDSDDD (New England Biolabs (UK) Ltd., Herts, UK); 10 units of recombinant human CK2 holoenzyme (New England Biolabs); 50 μM ATP and γ-labeled 32P ATP, diluted to specific activity 100 μCi/mM; CK2 buffer (20mM Tris-HCl, pH 7.5; 50mM KCl; 10mM MgCl2) and inhibitor in varying concentrations. Incubation time was 20 min at 30 °C. The reaction was stopped by adding an equal volume of 10% o-phosphoric acid and the reaction mixture was loaded onto 20-mm discs of phosphocellulose paper (Whatman plc, Kent, UK). Discs were washed three times with 1% o-phosphoric acid solution, air-dried at room temperature, and counted by the Cherenkov method in a beta-counter (LKB). As negative control an equal volume of DMSO was added to the reaction mixture. Quercetin, a known CK2 inhibitor, was used as an inhibition positive control. The final concentration of quercetin was 0.55 μM (which inhibited CK2 activity by 50%).

| SMILES | IC50 |
| --- | --- |
| COC(=O)c1cc(NC(=O)c2ccc(N3C(=O)C(C)CS3(=O)=O)cc2Cl)ccc1O (configuration not stated) [Methyl 5-{[2-chloro-4-(4-methyl-1,1-dioxido-3-oxoisothiazolidin-2-yl)benzoyl]amino}-2-hydroxybenzoate (39)] | > 30 µM |
| CC1CS(=O)(=O)N(c2ccc(C(=O)Nc3ccc(C(=O)O)c(O)c3)cc2)C1=O (configuration not stated) [2-hydroxy-4-{[4-(4-methyl-1,1-dioxido-3-oxoisothiazolidin-2-yl)benzoyl]amino}benzoic acid (27)] | 19.5 µM |
| CC1(C)CS(=O)(=O)N(c2ccc(C(=O)Nc3ccc(O)c(C(=O)O)c3)cc2)C1=O [5-{[4-(4,4-dimethyl-1,1-dioxido-3-oxoisothiazolidin-2-yl)benzoyl]amino}-2-hydroxybenzoic acid (29)] | > 30 µM |
| CC1CS(=O)(=O)N(c2ccc(C(=O)NCCCC(=O)O)cc2)C1=O (configuration not stated) [4-{[4-(4-methyl-1,1-dioxido-3-oxoisothiazolidin-2-yl)benzoyl]amino}butanoic acid (42)] | > 30 µM |
| CC1CS(=O)(=O)N(c2ccc(C(=O)Nc3ccc(C(=O)O)c(O)c3)c(Cl)c2)C1=O (configuration not stated) [4-{[2-chloro-4-(4-methyl-1,1-dioxido-3-oxoisothiazolidin-2-yl)benzoyl]amino}-2-hydroxybenzoic acid (38)] | 3.5 µM |
| CC1CS(=O)(=O)N(c2ccc(C(=O)Nc3cc(C(=O)O)ccc3O)c(Cl)c2)C1=O (configuration not stated) [3-{[2-chloro-4-(4-methyl-1,1-dioxido-3-oxoisothiazolidin-2-yl)benzoyl]amino}-4-hydroxybenzoic acid (37)] | 3.7 µM |
| O=C(O)c1cccc(NC(=O)c2ccc(N3C(=O)CCS3(=O)=O)cc2Cl)c1 [3-{[2-chloro-4-(1,1-dioxido-3-oxoisothiazolidin-2-yl)benzoyl]amino}benzoic acid (31)] | 1.5 µM |
| O=C(O)c1ccc(NC(=O)c2ccc(N3C(=O)CCS3(=O)=O)cc2Cl)cc1O [4-{[2-chloro-4-(1,1-dioxido-3-oxoisothiazolidin-2-yl)benzoyl]amino}-2-hydroxybenzoic acid (33)] | 3 µM |
| CC1(C)CS(=O)(=O)N(c2ccc(C(=O)Nc3cccc(C(=O)O)c3)cc2)C1=O [3-{[4-(4,4-dimethyl-1,1-dioxido-3-oxoisothiazolidin-2-yl)benzoyl]amino}benzoic acid (28)] | 8 µM |
| CC1CS(=O)(=O)N(c2ccc(C(=O)Nc3cccc(C(=O)O)c3)c(Cl)c2)C1=O (configuration not stated) [3-{[2-chloro-4-(4-methyl-1,1-dioxido-3-oxoisothiazolidin-2-yl)benzoyl]amino}benzoic acid (35)] | 3.6 µM |
| CC1(C)CS(=O)(=O)N(c2ccc(C(=O)Nc3ccc(C(=O)O)c(O)c3)cc2)C1=O [4-{[4-(4,4-dimethyl-1,1-dioxido-3-oxoisothiazolidin-2-yl)benzoyl]amino}-2-hydroxybenzoic acid (30)] | > 30 µM |
| CC1CS(=O)(=O)N(c2ccc(C(=O)Nc3ccc(O)c(C(=O)O)c3)c(Cl)c2)C1=O (configuration not stated) [5-{[2-chloro-4-(4-methyl-1,1-dioxido-3-oxoisothiazolidin-2-yl)benzoyl]amino}-2-hydroxybenzoic acid (36)] | 6 µM |
| O=C(O)c1cc(NC(=O)c2ccc(N3C(=O)CCS3(=O)=O)cc2Cl)ccc1O [5-{[2-chloro-4-(1,1-dioxido-3-oxoisothiazolidin-2-yl)benzoyl]amino}-2-hydroxybenzoic acid (32)] | 9 µM |
| CC1CS(=O)(=O)N(c2ccc(C(=O)Nc3cccc(C(=O)O)c3)cc2)C1=O (configuration not stated) [3-{[4-(4-methyl-1,1-dioxido-3-oxoisothiazolidin-2-yl)benzoyl]amino}benzoic acid (24)] | 3.1 µM |
| CC1CS(=O)(=O)N(c2ccc(C(=O)NCCC(=O)O)cc2)C1=O (configuration not stated) [N-[4-(4-methyl-1,1-dioxido-3-oxoisothiazolidin-2-yl)benzoyl]-b-alanine (41)] | > 30 µM |
| O=C(O)c1cccc(NC(=O)c2ccc(N3C(=O)CCS3(=O)=O)cc2)c1 [3-{[4-(1,1-dioxido-3-oxoisothiazolidin-2-yl)benzoyl]amino}benzoic acid (21)] | 1.8 µM |
| O=C(Nc1ccc(C(=O)O)c(O)c1)c1ccc(N2C(=O)CCS2(=O)=O)cc1 [4-{[4-(1,1-dioxido-3-oxoisothiazolidin-2-yl)benzoyl]amino}-2-hydroxybenzoic acid (23)] | 14 µM |
| O=C(Nc1ccc(O)c(C(=O)O)c1)c1ccc(N2C(=O)CCS2(=O)=O)cc1 [5-{[4-(1,1-dioxido-3-oxoisothiazolidin-2-yl)benzoyl]amino}-2-hydroxybenzoic acid (22)] | 8 µM |
| CC1CS(=O)(=O)N(c2ccc(C(=O)NCC(=O)O)cc2)C1=O (configuration not stated) [N-[4-(4-methyl-1,1-dioxido-3-oxoisothiazolidin-2-yl)benzoyl]glycine (40)] | > 30 µM |
| CC1CS(=O)(=O)N(c2ccc(C(=O)Nc3ccc(O)c(C(=O)O)c3)cc2)C1=O (configuration not stated) [2-hydroxy-5-{[4-(4-methyl-1,1-dioxido-3-oxoisothiazolidin-2-yl)benzoyl]amino}benzoic acid (25)] | > 30 µM |
| CC1CS(=O)(=O)N(c2ccc(C(=O)Nc3cc(C(=O)O)ccc3O)cc2)C1=O (configuration not stated) [4-hydroxy-3-{[4-(4-methyl-1,1-dioxido-3-oxoisothiazolidin-2-yl)benzoyl]amino}benzoic acid (26)] | 16 µM |
| O=C(O)c1ccc(NC(=O)c2ccc(N3C(=O)CCS3(=O)=O)cc2Cl)cc1 [4-{[2-chloro-4-(1,1-dioxido-3-oxoisothiazolidin-2-yl)benzoyl]amino}benzoic acid (34)] | > 30 µM |
